Common to all, as to format: in vivo
The test system of one test is Alternaria solani. Briefly: Alternaria test (tomatoes)/preventive. The settings on record: preventive, 3 days after inoculation. As for the experimental part:
(§1) Solvent: 24.5 parts by weight of acetone • 24.5 parts by weight of dimethylacetamide Emulsifier: 1 part by weight of alkylaryl polyglycol ether
(§2) To produce a suitable preparation of active compound, 1 part by weight of active compound is mixed with the stated amounts of solvent and emulsifier, and the concentrate is diluted with water to the desired concentration.
To test for preventive activity, young plants are sprayed with the preparation of active compound at the stated rate of application. After the spray coating has dried on, the plants are inoculated with an aqueous spore suspension of Alternaria solani. The plants are then placed in an incubation cabinet at approximately 20° C. and a relative atmospheric humidity of 100%.
The test is evaluated 3 days after the inoculation. 0% means an efficacy which corresponds to that of the untreated control while an efficacy of 100% means that no disease is observed.

The subject of a further test is Leptosphaeria nodorum. Kind of test: Leptosphaeria nodorum test (wheat)/preventive. The note with it: preventive, 8 days after inoculation. As for the experimental part: Solvent: 49 parts by weight of N,N-dimethylacetamide Emulsifier: 1 part by weight of alkylaryl polyglycol ether To produce a suitable preparation of active compound, 1 part by weight of active compound or active compound combination is mixed with the stated amounts of solvent and emulsifier, and the concentrate is diluted with water to the desired concentration. To test for preventive activity, young plants are sprayed with the preparation of active compound or active compound combination at the stated rate of application. After the spray coating has been dried, the plants are sprayed with a spore suspension of Leptosphaeria nodorum. The plants remain for 48 hours in an incubation cabinet at approximately 20° C. and a relative atmospheric humidity of approximately 100%. The plants are placed in the greenhouse at a temperature of approximately 22° C. and a relative atmospheric humidity of approximately 80%. The test is evaluated 8 days after the inoculation. 0% means an efficacy which corresponds to that of the untreated control, while an efficacy of 100% means that no disease is observed.

The test system of the next test is Botrytis cinerea. Briefly: Botrytis test (beans)/preventive. The settings on record: preventive, 2 days after inoculation. Here is the method:
as §1, §2
To test for preventive activity, young plants are sprayed with the preparation of active compound. After the spray coating has dried on, 2 small pieces of agar covered with growth of Botrytis cinerea are placed on each leaf. The inoculated plants are placed in a darkened chamber at 20° C. and a relative atmospheric humidity of 100%.
2 days after the inoculation, the size of the lesions on the leaves is evaluated. 0% means an efficacy which corresponds to that of the untreated control, while an efficacy of 100% means that no disease is observed.

The next test has as its system Venturia inaequalis. Briefly: Venturia test (apples)/preventive. The note with it: preventive, 10 days after inoculation. Here is the method:
as §1, §2
To test for preventive activity, young plants are sprayed with the preparation of active compound at the stated rate of application. After the spray coating has dried on, the plants are inoculated with an aqueous conidia suspension of the causal agent of apple scab (Venturia inaequalis) and then remain for 1 day in an incubation cabinet at approximately 20° C. and a relative atmospheric humidity of 100%.
The plants are then placed in a greenhouse at approximately 21° C. and a relative atmospheric humidity of approximately 90%.
The test is evaluated 10 days after the inoculation. 0% means an efficacy which corresponds to that of the untreated control, while an efficacy of 100% means that no disease is observed.

Structures are written as SMILES.

As for `OC(c1cccnc1)c1c(-c2ccc(Cl)cc2F)noc1-c1ccc(F)cc1F` (centres unmarked) [Ex 15, [3-(4-chloro-2-fluorophenyl)-5-(2,4-difluorophenyl)-1,2-oxazol-4-yl](pyridin-3-yl)methanol], the “Efficacy in % found” value in the test with Alternaria solani (5 ppm a.i.) is given as 24%; in the test on Leptosphaeria nodorum (250 ppm a.i.) it was 88%; in the test with Botrytis cinerea (2.5 ppm a.i.), 0%; in the test on Venturia inaequalis (5 ppm a.i.), 60%.

As to `CC1(C)N=C(c2cnc3ccccc3c2)c2cccc(F)c2C1(C)C` [Ex 11, 3-(5-fluoro-3,3,4,4-tetramethyl-3,4-dihydroisoquinolin-1-yl)quinoline], the “Efficacy in % found” value in the test with Alternaria solani (50 ppm a.i.) came to 38%; with Leptosphaeria nodorum (250 ppm a.i.), 75%; in the test with Botrytis cinerea (0.5 ppm a.i.), 30%; in the test with Venturia inaequalis (1 ppm a.i.), 0%.

For the molecule `CC1(C)N=C(c2cnc3ccccc3c2)c2cccc(F)c2C1(F)F` [Ex 12, 3-(4,4,5-trifluoro-3,3-dimethyl-3,4-dihydroisoquinolin-1-yl)quinoline], the “Efficacy in % found” value with Alternaria solani (50 ppm a.i.) was 13%; in the test with Leptosphaeria nodorum (250 ppm a.i.) it was 75%; in the test with Botrytis cinerea (0.5 ppm a.i.) it was 35%; in the test with Venturia inaequalis (0.25 ppm a.i.), 46%.

Take `CNC(=O)C(OC)c1ccccc1COc1cc(C)ccc1C` (stereo not drawn) [Ex 14, N-methyl-alpha-methoxy-2-[(2,5-dimethylphenoxy)methyl]phenylacetamide]: the “Efficacy in % found” value is on record as 52% with Alternaria solani (5 ppm a.i.), 25% with Leptosphaeria nodorum (250 ppm a.i.), 0% with Botrytis cinerea (1.25 ppm a.i.) and 31% with Venturia inaequalis (1.25 ppm a.i.).

`CC1(C)N=C(c2cnc3ccccc3c2)c2ccccc2C1(F)F` [Ex 10, 3-(4,4-difluoro-3,3-dimethyl-3,4-dihydroisoquinolin-1-yl)quinoline]: the “Efficacy in % found” value is 37% with Alternaria solani (100 ppm a.i.) and 88% with Leptosphaeria nodorum (250 ppm a.i.).

As to `Cc1cc(OC(C)C)ccc1C(=O)C(C)(C)NC(=O)c1sccc1C` [Ex 13, N-[1-(4-isopropoxy-2-methylphenyl)-2-methyl-1-oxopropan-2-yl]-3-methylthiophene-2-carboxamide], the results for the “Efficacy in % found” value with Alternaria solani (20 ppm a.i.), in the test with Leptosphaeria nodorum (250 ppm a.i.) and with Venturia inaequalis (10 ppm a.i.) were 52%, 25% and 64%, respectively.

`Cn1c(=O)c2sc3c(=O)n(C)c(=O)c3sc2c1=O` [(I-1), 2,6-dimethyl-1H,5H-[1,4]dithiino[2,3-c:5,6-c′]dipyrrole-1,3,5,7(2H,6H)-tetrone]: the “Efficacy in % found” value in the test with Alternaria solani (50 ppm a.i.) is listed as 29%; in the test with Alternaria solani (100 ppm a.i.) it was 26%; with Leptosphaeria nodorum (1000 ppm a.i.) it was 0%; in the test on Botrytis cinerea (12.5 ppm a.i.), 15%; with Botrytis cinerea (25 ppm a.i.) it was 33%; in the test with Venturia inaequalis (12.5 ppm a.i.), 0%. Also, the “Efficacy in % found” value is given as 15% in the test on Venturia inaequalis (25 ppm a.i.) and 62% in the test with Venturia inaequalis (50 ppm a.i.).
